In ChEMBL document CHEMBL1129780, “Adenine-arginine mimetics as bisubstrate analog inhibitors of cAMP-dependent protein kinase” (Bioorg Med Chem Lett, 1996):

Columns and labels:
Assay type in all cases: protein-complex assay
[1] = molecular target: T1, cAMP-dependent protein kinase A (Bos taurus, UniProt P00515+P00517+P05131+P31322); experiment: Inhibition of PKA at 100 uM ATP
[2] = molecular target: T1, cAMP-dependent protein kinase A; experiment: Inhibitory constant for Protein Kinase A
[3] = molecular target: T1, cAMP-dependent protein kinase A; experiment: Inhibition of PKA at 2 mM ATP

SMILES | IC50 [1] [µM] | Ki [2] [µM] | IC50 [3] [µM]
Nc1ncnc2c1ncn2[C@@H]1O[C@H](CO)[C@@H](O)[C@H]1O [ADENOSINE] | 160 | 15 | 1100
N=C(N)NCCOCCOCCn1cnc2c(N)ncnc21 | 1700 | 150 | 6200
N=C(N)NCCOCCn1cnc2c(N)ncnc21 | 320 | 29 | 760
N=C(N)NCCn1cnc2c(N)ncnc21 | 420 | 38 | 790
